Measurements: PMC6396940, “EhFP10: A FYVE family GEF interacts with myosin IB to regulate cytoskeletal dynamics during endocytosis in Entamoeba histolytica” (PLoS Pathogens, 2019)
Ends that are not written are not given here.

Tests used:
[1] = biological target: EhMySH3 (SH3 domain of EhMyosin IB) (Entamoeba histolytica, UniProt C4LUC7); assay: SPR binding of peptides to immobilized EhMySH3 (Autolab SPR); conditions: for relative SPR binding response: 0.8 mM of each peptide passed over immobilized EhMySH3, compared with the other peptides; for Kd: SPR kinetic analysis, peptide passed over immobilized EhMySH3, 10 mM HEPES, 150 mM NaCl, 3 mM EDTA, 0.05% NP-40, pH 7.4, 25°C, text: values could not be calculated accurately (peptides about 1000 Da), read-out: Binding affinity (KD, equilibrium dissociation constant)
Description: For binding studies of EhMySH3 with peptides, an Autolab SPR apparatus was used at the Advanced Instrumentation Research Facility, Jawaharlal Nehru University, New Delhi, India. Here, the 11-mercaptoundecanoic acid (11MUA) monolayer on the surface of the gold chip (Autolab) was activated by N-hydroxysuccinimide (NHS; 0.05 M)/[…] (EDC; 0.2 M). EhMySH3 protein (ligand) at a concentration of 37 μM was immobilized in channel 1 on the activated surface of the gold chip in 10 mM sodium acetate buffer (pH 5.0) up to 700 RU. During experimentation, channel 1 was used to pass the analytes (peptides) while channel 2 was used as a blank (the signals of the analyte with a ligand-free surface). After ligand immobilization, the surface was blocked with 100 mM ethanolamine at pH 8.5, followed by regeneration using 50 mM NaOH. The different peptides, each at various concentrations, were each injected at a rate of 20 μl/min across the sensor chip surface and the association kinetics and dissociation kinetics were monitored for 200 s and 100 s, respectively. All of the dilutions were done in running buffer, i.e., 10 mM HEPES, 150 mM NaCl, 3 mM EDTA, 0.05% NP-40 surfactant [pH 7.4].
All of the data were recorded at 25°C. For the evaluation of the kinetics, differential sensorgrams were analyzed using Autolab SPR Kinetic Evaluation software.

[2] = biological target: filamentous rabbit muscle actin (F-actin) (rabbit) (UniProt P68135)
[3] = biological target: filamentous rabbit muscle actin (F-actin) (rabbit) (UniProt P68135); assay: SPR; Autolab SPR; F-actin immobilised (0.67 ng/mm^3; 50 mM sodium acetate pH 4.1, 0.05 mM CaCl2, 0.05 mM ATP, 0.125 mM DTT), cterEhFP10 at various concentrations passed over; 25 C
[4] = biological target: c-terminal SH3 domain of EhMyosin IB (EhMySH3) (Entamoeba histolytica); assay: SPR; Autolab SPR; EhMySH3 immobilised (1.175 ng/mm^3), cterEhFP10 at various concentrations passed over; association 400 s, dissociation 150 s; 25 C
[5] = biological target: c-terminal SH3 domain of EhMyosin IB (EhMySH3) (Entamoeba histolytica); assay: SPR; Autolab SPR; EhMySH3 immobilised on an 11-MUA gold chip (NHS/EDC, up to 700 RU), peptides injected at 20 ul/min; 10 mM HEPES, 150 mM NaCl, 3 mM EDTA, 0.05% NP-40, pH 7.4; 25 C

KVAPPIPHR [P2, pseudo-symmetrical class I + II peptide … from EhFP10, co-crystallized with EhMySH3]
relative SPR binding response [1]: highest binding response

NIVPIQPPQ [P3]
Kd [1]: 1000 µM

QHCPNVPII [P5]
Kd [1]: 700 µM

RPQPPTP [P4, class I peptide RPQPPTP from EhFP10]
relative SPR binding response [1]: weakest binding

SLPPKPLR [P1]
Kd [1]: 400 µM

c-terminal domain of EhFP10 (cterEhFP10) (domain or fragment)
thickness of actin bundles by TEM, filaments of 4 nm to 7 nm without and bundles with 10 uM to 20 uM cterEhFP10 [2]: 120 nm | Kd [3]: 0.087 µM | Kd [4]: 0.2 µM

B1: peptide P5 from Rho family GTPase (peptide)
peptide: QHCPNVPII
modifications: not fully specified
Kd [5]: 700 µM

B2: peptide P3 from Rho family GTPase (peptide)
peptide: NIVPIQPPQ
modifications: not fully specified
Kd [5]: 1000 µM
